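Five compound concentrations were applied to cells in 96-well plates for 48 hours; endpoints were derived by simple linear interpolation of the resulting dose-response curve. At the GI50, growth is halved. TGI marks complete inhibition of growth.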
Legend:
Assay in all cases: NCI anticancer screen, dose series, 48 h
RXF 393 renal = tested on: RXF 393 renal
SF-295 CNS = tested on: SF-295 CNS
PC-3 prostate = tested on: PC-3 prostate
SN12C renal = tested on: SN12C renal
HT29 colon = tested on: HT29 colon
COLO 205 colon = tested on: COLO 205 colon
IGROV1 ovarian = tested on: IGROV1 ovarian
SF-539 CNS = tested on: SF-539 CNS
UACC-257 melanoma = tested on: UACC-257 melanoma
SK-MEL-5 melanoma = tested on: SK-MEL-5 melanoma
MDA-MB-435 = tested on: MDA-MB-435
SK-MEL-28 melanoma = tested on: SK-MEL-28 melanoma
TK-10 renal = tested on: TK-10 renal
ACHN renal = tested on: ACHN renal
OVCAR-8 ovarian = tested on: OVCAR-8 ovarian
786-0 renal = tested on: 786-0 renal
UACC-62 melanoma = tested on: UACC-62 melanoma
CAKI-1 renal = tested on: CAKI-1 renal
NCI-H23 lung = tested on: NCI-H23 lung
EKVX NSCLC = tested on: EKVX NSCLC
HCC-2998 colon = tested on: HCC-2998 colon
MALME-3M melanoma = tested on: MALME-3M melanoma
MDA-MB-231 breast = tested on: MDA-MB-231 breast
HOP-62 NSCLC = tested on: HOP-62 NSCLC
DU-145 prostate = tested on: DU-145 prostate
SK-OV-3 ovarian = tested on: SK-OV-3 ovarian
BT-549 breast = tested on: BT-549 breast
SK-MEL-2 melanoma = tested on: SK-MEL-2 melanoma
HCT-15 colon = tested on: HCT-15 colon
HL-60(TB) leukemia = tested on: HL-60(TB) leukemia
KM12 colon = tested on: KM12 colon
SF-268 CNS = tested on: SF-268 CNS
A498 renal = tested on: A498 renal
SNB-75 CNS = tested on: SNB-75 CNS
SNB-19 CNS = tested on: SNB-19 CNS
HOP-92 NSCLC = tested on: HOP-92 NSCLC
HS 578T breast = tested on: HS 578T breast
UO-31 renal = tested on: UO-31 renal
OVCAR-4 ovarian = tested on: OVCAR-4 ovarian
OVCAR-3 ovarian = tested on: OVCAR-3 ovarian
NCI-H226 lung = tested on: NCI-H226 lung
OVCAR-5 ovarian = tested on: OVCAR-5 ovarian
LOX IMVI melanoma = tested on: LOX IMVI melanoma
NCI/ADR-RES ovarian = tested on: NCI/ADR-RES ovarian
NCI-H522 lung = tested on: NCI-H522 lung
CCRF-CEM leukemia = tested on: CCRF-CEM leukemia
MDA-MB-468 breast = tested on: MDA-MB-468 breast

Cn1cc(/C=N/Nc2ccnc3cc(Cl)ccc23)c2ccccc21
GI50 (RXF 393 renal): 1530 nM | TGI (RXF 393 renal): 3000 nM | GI50 (SF-295 CNS): 1230 nM | TGI (SF-295 CNS): 2530 nM | GI50 (PC-3 prostate): 1150 nM | TGI (PC-3 prostate): 2670 nM | GI50 (SN12C renal): 1520 nM | TGI (SN12C renal): 2920 nM | GI50 (HT29 colon): 185 nM | TGI (HT29 colon): 338 nM | GI50 (COLO 205 colon): 1210 nM | TGI (COLO 205 colon): 2660 nM | GI50 (IGROV1 ovarian): 1410 nM | TGI (IGROV1 ovarian): 2820 nM | GI50 (SF-539 CNS): 181 nM | TGI (SF-539 CNS): 342 nM | GI50 (UACC-257 melanoma): 1550 nM | TGI (UACC-257 melanoma): 2970 nM | GI50 (SK-MEL-5 melanoma): 1450 nM | TGI (SK-MEL-5 melanoma): 2770 nM | GI50 (MDA-MB-435): 609 nM | TGI (MDA-MB-435): 1910 nM | GI50 (SK-MEL-28 melanoma): 1700 nM | TGI (SK-MEL-28 melanoma): 3090 nM | GI50 (TK-10 renal): 2520 nM | TGI (TK-10 renal): 4040 nM | GI50 (ACHN renal): 1370 nM | TGI (ACHN renal): 2670 nM | GI50 (OVCAR-8 ovarian): 1630 nM | TGI (OVCAR-8 ovarian): 3290 nM | GI50 (786-0 renal): 274 nM | TGI (786-0 renal): 717 nM | GI50 (UACC-62 melanoma): 1540 nM | TGI (UACC-62 melanoma): 2970 nM | GI50 (CAKI-1 renal): 1300 nM | TGI (CAKI-1 renal): 2650 nM | GI50 (NCI-H23 lung): 1210 nM | TGI (NCI-H23 lung): 2520 nM | GI50 (EKVX NSCLC): 1260 nM | TGI (EKVX NSCLC): 2580 nM | GI50 (HCC-2998 colon): 669 nM | TGI (HCC-2998 colon): 1950 nM | GI50 (MALME-3M melanoma): 1580 nM | TGI (MALME-3M melanoma): 3020 nM | GI50 (MDA-MB-231 breast): 202 nM | TGI (MDA-MB-231 breast): 488 nM | GI50 (HOP-62 NSCLC): 1520 nM | TGI (HOP-62 NSCLC): 3130 nM | GI50 (DU-145 prostate): 978 nM | TGI (DU-145 prostate): 2400 nM | GI50 (SK-OV-3 ovarian): 1390 nM | TGI (SK-OV-3 ovarian): 2900 nM | GI50 (BT-549 breast): 1620 nM | TGI (BT-549 breast): 3110 nM | GI50 (SK-MEL-2 melanoma): 1600 nM | TGI (SK-MEL-2 melanoma): 3040 nM | GI50 (HCT-15 colon): 293 nM | TGI (HCT-15 colon): 823 nM | GI50 (HL-60(TB) leukemia): 205 nM | TGI (HL-60(TB) leukemia): 466 nM | GI50 (KM12 colon): 1650 nM | TGI (KM12 colon): 3150 nM | GI50 (SF-268 CNS): 1720 nM | TGI (SF-268 CNS): 3590 nM | GI50 (A498 renal): 1970 nM | TGI (A498 renal): 3500 nM | GI50 (SNB-75 CNS): 639 nM | TGI (SNB-75 CNS): 2180 nM | GI50 (SNB-19 CNS): 1050 nM | TGI (SNB-19 CNS): 2490 nM | GI50 (HOP-92 NSCLC): 1420 nM | TGI (HOP-92 NSCLC): 3000 nM | GI50 (HS 578T breast): 1480 nM | TGI (HS 578T breast): 3490 nM | GI50 (UO-31 renal): 1240 nM | TGI (UO-31 renal): 2520 nM | GI50 (OVCAR-4 ovarian): 531 nM | TGI (OVCAR-4 ovarian): 1200 nM | GI50 (OVCAR-3 ovarian): 206 nM | TGI (OVCAR-3 ovarian): 468 nM | GI50 (NCI-H226 lung): 1500 nM | TGI (NCI-H226 lung): 3250 nM | GI50 (OVCAR-5 ovarian): 1680 nM | TGI (OVCAR-5 ovarian): 3060 nM | GI50 (LOX IMVI melanoma): 175 nM | TGI (LOX IMVI melanoma): 323 nM | GI50 (NCI/ADR-RES ovarian): 1040 nM | TGI (NCI/ADR-RES ovarian): 2480 nM | GI50 (NCI-H522 lung): 1320 nM | TGI (NCI-H522 lung): 2750 nM | GI50 (CCRF-CEM leukemia): 281 nM | TGI (CCRF-CEM leukemia): 799 nM | GI50 (MDA-MB-468 breast): 239 nM | TGI (MDA-MB-468 breast): 563 nM

COc1ccc(-n2nc(C)c3c(Nc4ccc(NC(=O)Nc5cc(C(F)(F)F)ccc5F)cc4)ncnc32)cc1
GI50 (MDA-MB-468 breast): 2480 nM | TGI (MDA-MB-468 breast): 6140 nM

CCc1nc2cc(/C=C/C(=O)NO)c(F)cc2c(=O)n1CCc1ccccc1
GI50 (MDA-MB-468 breast): 474 nM | TGI (MDA-MB-468 breast): 2920 nM

C[C@]1(O)CC(=O)[C@]2(O)C3=C(C=C[C@]2(O)C1)C(=O)c1c(O)cccc1C3=O
GI50 (MDA-MB-468 breast): 1700 nM | TGI (MDA-MB-468 breast): 3870 nM

CN([N-]C(=O)CC(=O)[N-]N(C)C(=S)c1ccccc1)C(=S)c1ccccc1.[Cu+2]
GI50 (MDA-MB-468 breast): < 10 nM | TGI (MDA-MB-468 breast): 38.6 nM

CN1CCN(c2ccc(NC3=C(Cl)C(=O)c4ncccc4C3=O)cc2C(F)(F)F)CC1
GI50 (MDA-MB-468 breast): 746 nM | TGI (MDA-MB-468 breast): 2690 nM

COc1cc(/C=C\c2cc(/C=C\c3ccc(O)c(OC)c3)n(C(=O)Nc3ccc(C(F)(F)F)cc3)n2)ccc1O
GI50 (MDA-MB-468 breast): 2300 nM | TGI (MDA-MB-468 breast): 6250 nM

CCOc1ccc2c(-c3ccnc(Nc4cccc(C(F)(F)F)c4)n3)cnn2n1
GI50 (MDA-MB-468 breast): 1140 nM | TGI (MDA-MB-468 breast): > 25000 nM

COc1cccc2c1C(=O)c1c(O)c3c(c(O)c1C2=O)C[C@@](O)(C(=O)COC(=O)c1cccnc1)C[C@@H]3OC1CC(N)C(O)C(C)O1 (stereo not given in full)
GI50 (MDA-MB-468 breast): 136 nM | TGI (MDA-MB-468 breast): 465 nM

Source: PubChem BioAssay (NCI)
